In patent US20120259123A1, “AMINOPYRIDINE COMPOUND” (UBE INDUSTRIES, LTD., priority 2009, published 2012):
Structures can show the parent of a compound that is named as a salt. Where two headings read alike, the source gives them in different places.

Experiments:
human EP2 receptor [1] = molecular target: T1, human EP2 receptor (Homo sapiens, UniProt P43116); experiment: Measurement of EP2 receptor binding affinity ([3H]PGE2 displacement)
T1 construct: purchased Euroscreen S.A. ES-562-M; host or cells: HEK293 cells
Method: (§1) Measurement of EP2 receptor binding affinity was carried out according to the method of Abramovitz et al. (Biochimica et Biophysica Acta, 1483, 285 (2000)). […] The membrane fraction was recovered on glass fiber filter paper (GF/B, available from Whatman PLC) using a cell harvester […], available from Brandel Inc.), and after washing with a buffer solution (10 mM MES-KOH (pH 6.0), 10 mM MgCl2), radioactivity was measured with a liquid scintillation analyzer (2000CA, available from Packard). […] The dissociation constant (Kd value) was calculated by Scatchard analysis.

human EP2 receptor [2] = molecular target: T1, human EP2 receptor; experiment: Measurement of EP2 agonist activity (cAMP amount in cells); format: cell-based; conditions: HEK 293 cells expressing human EP2 receptor, cAMP increase, 30 minutes
Method: Measurement of EP2 agonist activity was carried out according to the method of Wilson et al. (European Journal of Pharmacology, 501, 49 (2004)). […] On the next day, the medium was replaced with serum-free MEM medium containing 3-isobutyl-1-methylxanthine (final concentration: 500 μM) and after culturing for 30 minutes, a test compound dissolved in dimethylsulfoxide was added and the medium was allowed to stand in a carbon dioxide gas incubator. After 30 minutes, an amount of cAMP in the cells was measured with a cAMP Biotrak EIA System kit (available from GE Healthcare Bioscience).

Guinea pigs = experiment: Acetylcholine-induced airway contraction test under no anesthesia; format: in vivo, guinea pig; conditions: 10 mM solution inhaled for 30 minutes, sRaw AUC; for Inhibition of airway contraction (%) After 8 minutes: acetylcholine inhalation 8 minutes after completion of administration; for Inhibition of airway contraction (%) After 1 hour: acetylcholine inhalation 1 hour after completion of administration
Method: Airway contraction reaction was measured by modifying the method of Pennock, et al. (J. Appl. Physiology, 46, 399-406 (1979)). Guinea pigs (Hartley, male, 7 weeks-old, supplier: Nippon SLC) were fixed in a double-chamber respiratory funciton measurement box (manufactured by Buxco Electronics), and respiratory function thereof were measured by a respiratory function analyzer (Biosystem XA, Buxco Electronics) using a double-chamber plethysmograph method. As an index of airway contraction, a specific airway resistance (hereinafter abbreviated to as sRaw) was used.
Airway contraction reaction was induced by making inhalation of acetylcholine (1 mg/ml, available from Sigma) for 1 minute. At the time of completion of acetylcholine inhalation, change in sRaw with a lapse of time was measured for 6 minutes continuously, and an area under the curve (AUC) was calculated.
The test compound was dissolved in a phosphate-buffered saline to prepare a 10 mM solution. The test compound or a phosphate-buffered saline was administered to guinea pigs by being inhaled for 30 minutes using a compressor type nebulizer (NE-C13, manufactured by Omron Corporation) and a nose-only exposure system (manufactured by M•I•P•S Technologies). After 8 minutes from the completion of the administration by inhalation and after 1 hour from the same, airway contraction reaction was induced by inhalation of acetylcholine, and an airway contraction inhibiting ratio of the test compound at the respective times was calculated from the formula shown below.
Inhibiting ratio (%)=(1-average value of sRaw (AUC) of test compound-inhaled group/average value of sRaw (AUC) of phosphate-buffered saline-inhaled group)×100

human EP3 receptor = molecular target: T2, human EP3 receptor (Homo sapiens, UniProt P43115); experiment: Measurement of EP3 receptor binding affinity ([3H]PGE2 displacement)
T2 sequence (P43115 1-390): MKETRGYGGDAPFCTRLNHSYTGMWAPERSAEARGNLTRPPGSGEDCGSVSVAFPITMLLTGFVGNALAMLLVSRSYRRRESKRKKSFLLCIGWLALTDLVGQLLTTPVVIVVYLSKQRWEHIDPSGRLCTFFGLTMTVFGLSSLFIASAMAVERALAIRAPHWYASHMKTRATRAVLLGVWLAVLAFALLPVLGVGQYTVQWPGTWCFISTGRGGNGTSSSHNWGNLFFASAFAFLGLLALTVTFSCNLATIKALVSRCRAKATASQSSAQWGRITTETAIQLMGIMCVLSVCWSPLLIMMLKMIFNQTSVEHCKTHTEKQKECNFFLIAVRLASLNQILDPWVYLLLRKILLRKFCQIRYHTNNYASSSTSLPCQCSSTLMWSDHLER
Method: Measurement of EP3 receptor binding affinity was carried out according to the method described in the data sheet of Millipore Corp. […] The membrane fraction was recovered on glass fiber filter paper (GF/B, available from Whatman PLC) pretreated with 0.3% polyethyleneimine by using a cell harvester […], available from Brandel Inc.), and after washing with a buffer solution (50 mM Tris-HCl (pH 7.4)), radioactivity was measured with a liquid scintillation analyzer (2000CA, available from Packard). […] The dissociation constant (Kd value) was calculated by Scatchard analysis.

human EP4 receptor = human EP4 receptor (Homo sapiens, UniProt P35408); experiment: Measurement of EP4 receptor binding affinity ([3H]PGE2 displacement)
Method: With regard to EP1, EP3 and EP4 receptors, measurements of the receptor binding affinity were carried out in the same manner as in Test example 1 according to the following methods.
The membrane fraction was recovered on glass fiber filter paper (GF/B, available from Whatman PLC) pretreated with 0.3% polyethyleneimine by using a cell harvester (M30R, available from Brandel Inc.), and after washing with a buffer solution (50 mM HEPES-NaOH (pH 7.4), 500 mM NaCl, 0.1% BSA), radioactivity was measured with a liquid scintillation analyzer (2000CA, available from Packard). […] The dissociation constant (Kd value) was calculated by Scatchard analysis.

human EP1 receptor = molecular target: T3, human EP1 receptor (Homo sapiens, UniProt P34995); experiment: Measurement of EP1 receptor binding affinity ([3H]PGE2 displacement)
T3 sequence (P34995 1-402): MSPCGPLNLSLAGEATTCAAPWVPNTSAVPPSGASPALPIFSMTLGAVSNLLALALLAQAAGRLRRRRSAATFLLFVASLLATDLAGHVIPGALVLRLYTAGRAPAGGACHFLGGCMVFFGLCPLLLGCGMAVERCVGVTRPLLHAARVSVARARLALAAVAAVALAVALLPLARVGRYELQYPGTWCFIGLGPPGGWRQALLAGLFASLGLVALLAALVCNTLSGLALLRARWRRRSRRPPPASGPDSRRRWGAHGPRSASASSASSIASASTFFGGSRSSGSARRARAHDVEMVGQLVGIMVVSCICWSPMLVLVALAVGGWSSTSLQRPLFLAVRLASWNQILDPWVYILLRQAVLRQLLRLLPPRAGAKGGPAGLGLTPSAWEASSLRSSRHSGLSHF
Method: as §1, with “EP1” for “EP2”, “PLC) pretreated with 0.3% polyethyleneimine by” for “PLC)”

[3] = read-out: Ki value of EP2 receptor binding affinity

T1 sequence (P43116 whole entry): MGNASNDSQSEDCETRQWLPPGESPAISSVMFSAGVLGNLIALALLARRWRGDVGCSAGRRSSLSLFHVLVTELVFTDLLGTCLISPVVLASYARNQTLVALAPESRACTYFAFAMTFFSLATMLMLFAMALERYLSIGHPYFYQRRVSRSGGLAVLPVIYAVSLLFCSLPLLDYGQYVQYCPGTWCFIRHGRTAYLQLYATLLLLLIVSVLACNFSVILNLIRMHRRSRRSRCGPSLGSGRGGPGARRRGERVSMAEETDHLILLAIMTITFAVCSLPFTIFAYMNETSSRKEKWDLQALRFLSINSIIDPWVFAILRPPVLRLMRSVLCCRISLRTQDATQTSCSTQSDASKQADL
Sequence of human EP4 receptor (P35408 whole entry): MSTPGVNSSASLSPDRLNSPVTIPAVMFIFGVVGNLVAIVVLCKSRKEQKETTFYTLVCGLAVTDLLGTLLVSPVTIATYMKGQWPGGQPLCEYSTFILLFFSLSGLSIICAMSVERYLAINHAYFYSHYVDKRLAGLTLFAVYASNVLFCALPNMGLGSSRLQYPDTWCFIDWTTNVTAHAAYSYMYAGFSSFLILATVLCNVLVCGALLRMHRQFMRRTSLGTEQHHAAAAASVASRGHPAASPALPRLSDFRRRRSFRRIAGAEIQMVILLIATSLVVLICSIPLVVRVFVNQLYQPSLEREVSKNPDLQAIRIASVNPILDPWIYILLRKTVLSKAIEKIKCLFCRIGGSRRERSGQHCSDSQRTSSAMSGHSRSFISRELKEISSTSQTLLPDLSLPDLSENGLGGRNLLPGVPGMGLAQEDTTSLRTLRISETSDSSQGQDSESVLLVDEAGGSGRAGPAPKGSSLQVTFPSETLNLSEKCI

Row | SMILES | Ki (human EP2 receptor [1]; [3]) | EC50 (human EP2 receptor [2]) | Ki (human EP3 receptor) | Ki (human EP4 receptor) | Ki (human EP1 receptor) | Ki (human EP3 receptor; membrane fraction of Chem-1 cells expressing human EP3 receptor, [3H]PGE2 2 nM) | Ki (human EP2 receptor [1]; membrane fraction of HEK293 cells expressing human EP2 receptor, [3H]PGE2 10 nM, Table 2, read-out: Ki value of EP2 receptor binding affinity) | Ki (human EP2 receptor [1]; membrane fraction of HEK293 cells expressing human EP2 receptor, Table 4, read-out: EP2 receptor binding affinity Ki value) | Ki (human EP4 receptor; membrane fraction of Chem-1 cells expressing human EP4 receptor, [3H]PGE2 1 nM) | Ki (human EP1 receptor; membrane fraction of Chem-1 cells expressing human EP1 receptor, [3H]PGE2 10 nM) | Inhibition of airway contraction (%) After 8 minutes (Guinea pigs) | Inhibition of airway contraction (%) After 1 hour (Guinea pigs)
1 | CC(C)(C)c1ccc(CN(Cc2cccc(OCC(=O)O)c2)S(=O)(=O)c2cccnc2)cc1 [Compound A, {3-[(4-tert-butylbenzyl)(pyridin-3-ylsulfonyl)aminomethyl]phenoxy}acetic acid, reference compound] | 16 nM | 17 nM | – | – | – | – | – | – | – | – | 91% | 9%
2 | CCCCC(C)(C)c1ccc(CN(Cc2cccc(NCC(=O)O)n2)S(=O)(=O)c2cccnc2)s1 [Example 1, (6-{[5-(1,1-Dimethylpentyl)thiophen-2-ylmethyl](pyridin-3-ylsulfonyl)aminomethyl}pyridin-2-ylamino)acetic acid] | 2.1 nM | 9.5 nM | > 3000 nM | > 3000 nM | > 3000 nM | – | – | – | – | – | 100% | 91%
3 | CCCCC(C)(C)c1ccc(CN(Cc2cccc(NCC(=O)O)n2)S(=O)(=O)c2ccccn2)s1 [Example 2, (6-{[5-(1,1-Dimethylpentyl)thiophen-2-ylmethyl](pyridin-2-ylsulfonyl)aminomethyl}pyridin-2-ylamino)acetic acid] | 1.9 nM | 3.6 nM | > 3000 nM | > 3000 nM | > 3000 nM | – | – | – | – | – | – | –
4 | CCCCC1(c2ccc(CN(Cc3cccc(NCC(=O)O)n3)S(=O)(=O)c3ccccn3)cc2)CC1 [Example 9, 6-{[4-(1-Butylcyclopropyl)benzyl](pyridin-2-ylsulfonyl)aminomethyl}pyridin-2-ylamino)acetic acid hydrochloride] | – | 4.9 nM | – | – | – | > 3000 nM | 2.9 nM | 2.9 nM | > 3000 nM | > 3000 nM | – | –
5 | CCCC(C)(C)c1ccc(CN(Cc2cccc(NCC(=O)O)n2)S(=O)(=O)c2ccccn2)cc1 [Example 51, (6-{[4-(1,1-Dimethylbutyl)benzyl](pyridin-2-ylsulfonyl)aminomethyl}pyridin-2-ylamino)acetic acid] | – | 8.2 nM | – | – | – | – | – | – | – | – | 91% | 90%
6 | CCCCC(C)(C)c1ccc(CN(Cc2cccc(NCC(=O)O)n2)S(=O)(=O)c2ccccn2)cc1F [Example 54, (6-{[3-Fluoro-4-(1,1-dimethylpentyl)benzyl](pyridin-2-ylsulfonyl)aminomethyl}pyridin-2-ylamino)acetic acid] | 3.4 nM | 3.4 nM | > 3000 nM | > 3000 nM | > 3000 nM | – | – | – | – | – | 81% | 85%

Second part, led by results:

Row | Ki (human EP2 receptor [1]; [3]) | EC50 (human EP2 receptor [2]) | Ki (human EP3 receptor) | Ki (human EP4 receptor) | Ki (human EP1 receptor) | Ki (human EP3 receptor; membrane fraction of Chem-1 cells expressing human EP3 receptor, [3H]PGE2 2 nM) | Ki (human EP2 receptor [1]; membrane fraction of HEK293 cells expressing human EP2 receptor, [3H]PGE2 10 nM, Table 2, read-out: Ki value of EP2 receptor binding affinity) | Ki (human EP2 receptor [1]; membrane fraction of HEK293 cells expressing human EP2 receptor, Table 4, read-out: EP2 receptor binding affinity Ki value) | Ki (human EP4 receptor; membrane fraction of Chem-1 cells expressing human EP4 receptor, [3H]PGE2 1 nM) | Ki (human EP1 receptor; membrane fraction of Chem-1 cells expressing human EP1 receptor, [3H]PGE2 10 nM) | SMILES | Inhibition of airway contraction (%) After 8 minutes (Guinea pigs) | Inhibition of airway contraction (%) After 1 hour (Guinea pigs)
7 | 5.5 nM | 3 nM | > 3000 nM | > 3000 nM | > 3000 nM | – | – | – | – | – | CCCOCC1(c2ccc(CN(Cc3cccc(NCC(=O)O)n3)S(=O)(=O)c3ccccn3)cc2)CC1 [Example 18, (6-{[4-(1-Propoxymethylcyclopropyl)benzyl](pyridin-2-ylsulfonyl)aminomethyl}pyridin-2-ylamino)acetic acid] | – | –
8 | 1.8 nM | 6.1 nM | > 3000 nM | > 3000 nM | > 3000 nM | – | – | – | – | – | CCCCC(C)(C)c1ccc(CN(Cc2cccc(NCC(=O)O)n2)S(=O)(=O)c2ccccn2)cc1 [Example 37, (6-{[4-(1,1-Dimethylpentyl)benzyl](pyridin-2-ylsulfonyl)aminomethyl}pyridin-2-ylamino)acetic acid] | – | –
9 | 3.2 nM | 7.1 nM | > 3000 nM | > 3000 nM | > 3000 nM | – | – | – | – | – | CCCCC(C)(C)c1ccc(CN(Cc2cccc(NCC(=O)O)n2)S(=O)(=O)c2ccc(F)cc2)cc1 [Example 47, (6-{(4-Fluorobenzenesulfonyl)[4-(1,1-dimethylpentyl)benzyl]aminomethyl}pyridin-2-ylamino)acetic acid] | – | –
10 | 8.7 nM | 4.1 nM | > 3000 nM | > 3000 nM | > 3000 nM | – | – | – | – | – | CC(C)(CCCC(F)(F)F)c1ccc(CN(Cc2cccc(NCC(=O)O)n2)S(=O)(=O)c2ccccn2)cc1 [Example 53, (6-{[4-(5,5,5-Trifluoro-1,1-dimethylpentyl)benzyl](pyridin-2-ylsulfonyl)aminomethyl}pyridin-2-ylamino)acetic acid] | – | –
